These results are taken from patent publication US20250092401A1, “COMBINATION THERAPY FOR TREATING HEPATITIS B VIRUS INFECTIONS” (GLAXOSMITHKLINE INTELLECTUAL PROPERTY DEVELOPMENT LIMITED, priority 2022, published 2025).

The subject of data set [1] is HBV HBsAg. The experiment in a line: HBsAg reduction in HepAD38 cell line (HBsAg ELISA). Type of data set: cell-based, hepatitis B virus (HBV). As to conditions: Hepatitis B virus; for pEC50: HePAD38, 168 h, read-out: HBsAg (EC50). How it is done:
HepAD38 cells were maintained in collagen-coated flasks in cell culture medium (DMEM/F12 containing 10% fetal bovine serum (FBS), GlutaMax-1, penicillin/streptomycin, non-essential amino acids, Na pyruvate, 250 μg/mL geneticin, and 1 μg/mL doxycycline). Compound solutions were prepared in DMSO and compounds were serially diluted for final concentrations of 4000, 1000, 250, 62.5, 15.6, 3.91, 0.977, 0.244, 0.061, and 0.015 nM. The cells were then trypsinized and the cells were plated at 10,000 cells per well. Plates were incubated at 37° C., 5% CO2 for 4 days. Media was replaced with new media with compound treatment. The plates were then incubated at 37° C., 5% CO2 for an additional 3 days for a total treatment time of 7 days. For antiviral response, HBsAg was measured using the HBsAg ELISA kit (International Immuno-diagnostics) with instructions provided. 100 μL of cell media samples was used for ELISA. The absorbance was read on the SPECTRAMAX 384 plate reader (Molecular Devices) at 450 nm. For cell toxicity, the cells were used for CELLTITER-GLO Luminescent Cell Viability Assay reagent (Promega). The luminescence was read on Envision Multilabel Reader (Perkin Elmer). The data was analyzed compared to the DMSO control.
% inhibition=(1−(unknown/high control))*100
The average % inhibition values from duplicate assay plates were then plotted in GraphPad Prism to determine one EC value: Four-parameter logistic curve with equation Y=Bottom+(Top-Bottom)/(1+10^((Log EC50−X)*Hillslope))
(§1) The antiviral activity of Compound A was evaluated in in vitro HBV systems: (1) HepAD38, a hepatoma cell line with inducible expression of HBV, (2) primary human hepatocytes (PHHs) infected with HBV, and in vivo in infected male C57BL/6 mice with AAV-HBV. Overall there is a correlation between in vitro potency (HepAD38 & PHHs) and AAV-HBV in vivo model HBsAg inhibition.
For orientation: In an ELISA, binding on a coated surface is turned into a signal by an enzyme label.

For data set [2] the following is noted: preclinical; terminated in Phase 1 clinical trials due to toxicity; cited from earlier work.
Data set [3] concerns primary human hepatocytes (PHH). The experiment in a line: Visual examination for cell toxicity in PHH. It is filed as cell-based. As to conditions: HBV infected PHH, 21 days treatment.
Data set [4] relates to AAV-HBV. The experiment in a line: AAV-HBV mouse model, sequential treatment. It is filed as in vivo, male C57BL/6 mice. As to conditions: 30 mg/kg Compound A alone. The source says: After 35 days of infection with AAV-HBV, sequential treatment of the infected male C57BL/6 mice began first with Compound A followed by bepirovirsen.
[…], reductions in HBsAg was observed, reaching a maximum reduction of over 1 log and nearly 2 logs, respectively, by the second week. This reduction was statistically significant when compared to the combined vehicle group.

The target in the next data set is PAPD7 (Homo sapiens, UniProt Q5XG87). The experiment in a line: PAPD7 A15 RNA SPA biochemical assay. As to conditions: 10 nM enzyme, 5 uM ATP, 50 nM A15 RNA; read-out: average pIC50 PAPD7 (converted). How it is done: (§2) Dose-response studies were conducted for Compound A and RG7834 in the PAPD5 and PAPD7 A15 RNA SPA formats. Four different batches of Compound A and two different batches of RG7834 were used in both assays. Reactions contained 5 uM ATP, 0.0025 uCi/uL 3H-ATP, 50 nM A15 RNA, 10 nM enzyme in assay buffer (20 mM Tris 7.5, 3 mM CHAPS, 0.05% dBSA, 10 mM MgCl2, 1 mM DTT, 25 mM KCl). Reaction product was detected using SPA bead mix, final concentrations were 1 mg/mL PEI-PS, 1.25 mM ATP, 11.25 mM EDTA. End point signal detection correlated with slopes of reaction time courses. Curve fitting was performed using 4-parameter fitting in ActivityBase software.
Sequence of PAPD7 (Q5XG87 whole entry): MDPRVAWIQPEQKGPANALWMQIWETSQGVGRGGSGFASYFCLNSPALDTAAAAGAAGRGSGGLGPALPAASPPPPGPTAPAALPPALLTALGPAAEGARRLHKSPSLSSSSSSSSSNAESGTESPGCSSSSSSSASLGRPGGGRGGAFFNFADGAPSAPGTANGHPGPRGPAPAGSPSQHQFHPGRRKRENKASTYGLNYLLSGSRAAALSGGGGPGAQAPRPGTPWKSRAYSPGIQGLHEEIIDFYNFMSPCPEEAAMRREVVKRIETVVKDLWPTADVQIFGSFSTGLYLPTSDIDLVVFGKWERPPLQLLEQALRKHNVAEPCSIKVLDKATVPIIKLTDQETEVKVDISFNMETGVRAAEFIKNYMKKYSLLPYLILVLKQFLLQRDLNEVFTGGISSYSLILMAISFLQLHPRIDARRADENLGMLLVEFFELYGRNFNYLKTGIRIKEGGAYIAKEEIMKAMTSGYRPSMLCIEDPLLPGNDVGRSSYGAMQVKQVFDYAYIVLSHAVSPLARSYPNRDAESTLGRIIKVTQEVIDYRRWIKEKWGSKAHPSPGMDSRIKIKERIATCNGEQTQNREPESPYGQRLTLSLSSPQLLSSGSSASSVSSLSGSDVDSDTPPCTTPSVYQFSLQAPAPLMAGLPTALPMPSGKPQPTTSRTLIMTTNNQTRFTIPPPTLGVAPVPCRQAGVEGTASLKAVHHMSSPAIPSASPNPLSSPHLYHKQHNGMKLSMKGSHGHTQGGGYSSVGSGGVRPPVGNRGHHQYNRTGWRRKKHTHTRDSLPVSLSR

The nature of data set [5]: Toxicity evaluation incl. nerve toxicity, 28 days of dosing, rats. As to conditions: 28 days of dosing followed by 6 week off dose period. It is filed as in vivo. How it is done: (§3) Studies were conducted to evaluate toxicity, including additional endpoints investigating nerve toxicity of Compound A after 28 days of dosing followed by a 6 week off dose period in rats and monkeys.

Another data set has as its target PAPD5 (Homo sapiens, UniProt Q8NDF8). The experiment in a line: PAPD5 A15 RNA SPA biochemical assay. How it is done: as §2
Data set [6] concerns AAV-HBV. The experiment in a line: AAV-HBV mouse model, mono-treatment. As to conditions: for HBsAg reduction: within one week of treatment, sustained. It is filed as in vivo, male C57BL/6 mice. How it is done: After 28 days of infection with AAV-HBV, mono-treatment of the infected male C57BL/6 mice with either Compound A or bepirovirsen was initiated. […] HBsAg reduction for the 3 and 30 mg/kg Compound A dose groups was close to 1 log and 1 log, respectively, within one week of treatment and reduction levels were sustained throughout the duration of the treatment period. […] The maximum observed reduction in HBeAg was 0.5 log at 30 mg/kg Compound A. There was a small reduction (0.26 to 0.40 log) in HBV DNA at the 3 and 30 mg/kg Compound A dose levels when compared to the combined vehicle group. […]

In data set [7] the test system is HBV HBsAg. The experiment in a line: HBsAg reduction in HBV infected primary human hepatocytes (ELISA). Type of data set: cell-based. As to conditions: Hepatitis B virus, Hepatocyte. How it is done: The potency (pIC50) of Compound A for reduction of HBV HBsAg was investigated in primary human hepatocytes (PHH) from three donors. HBV infected PHH samples were treated with Compound A for 21 days and secreted HBsAg was measured using an ELISA assay to determine the % inhibition and average potency of the replicates (two per PHH donor).
as §1

The nature of data set [8]: Toxicity evaluation incl. nerve toxicity, 28 days of dosing, monkeys. As to conditions: 28 days of dosing followed by 6 week off dose period. It is filed as in vivo. How it is done: as §3

Structures are written as SMILES. pEC50: −log10 of the molar value. In brackets after ≈: the same amount, converted by molar mass. Several values for one entry are separate records, joined by “and”; a condition that tells them apart may be missing. Equal entries are not always repeated. Where two headings read alike, the source gives them in different places.

Sequence of PAPD5 (Q8NDF8 whole entry): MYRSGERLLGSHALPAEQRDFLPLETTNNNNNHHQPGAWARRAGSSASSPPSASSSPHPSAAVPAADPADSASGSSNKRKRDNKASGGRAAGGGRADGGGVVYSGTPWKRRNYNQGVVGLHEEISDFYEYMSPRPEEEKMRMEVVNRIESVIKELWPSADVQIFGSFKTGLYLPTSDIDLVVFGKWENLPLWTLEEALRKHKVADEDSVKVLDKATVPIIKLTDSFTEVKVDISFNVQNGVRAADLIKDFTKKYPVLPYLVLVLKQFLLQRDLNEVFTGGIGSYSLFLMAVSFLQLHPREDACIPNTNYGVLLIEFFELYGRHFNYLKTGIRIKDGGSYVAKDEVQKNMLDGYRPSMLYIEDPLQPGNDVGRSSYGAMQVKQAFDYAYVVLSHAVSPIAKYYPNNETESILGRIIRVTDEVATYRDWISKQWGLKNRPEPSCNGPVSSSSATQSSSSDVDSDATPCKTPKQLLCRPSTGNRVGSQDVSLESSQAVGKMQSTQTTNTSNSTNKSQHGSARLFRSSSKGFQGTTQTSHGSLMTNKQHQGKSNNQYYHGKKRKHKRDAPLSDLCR

Consider `Cc1cc2c(cc1OCC1COC1)CC1(CCC1)n1cc(C(=O)O)c(=O)cc1-2` [Compound B, reference compound], for which, in the data set on HBV HBsAg [1], the pEC50 (usually the negative decadic logarithm of the EC50, by convention in mol/L) is 8.52.

For `COCCCOc1cc2c(cc1OC)-c1cc(=O)c(C(=O)O)cn1[C@H](C(C)C)C2` [RG7834, reference compound], the pEC50 with HBV HBsAg [1] was 8.70. Also, the “no adverse effect dose” value in [2] is on record as “no adverse effect dose could not be established”.

Take `COCCCOc1cc2c(nc1Cl)-c1cc(=O)c(C(=O)O)cn1[C@H]1[C@@H]2CCC1(C)C` [Compound A]: in [3], the “cell toxicity (visual examination)” value is listed as “no detected sign of cell toxicity”. Also, the IC50 was 0.00056 µg/mL and 1.3 nM in the data set with HBV HBsAg [1] (HePAD38); 20 nM on PAPD7; 12.6 nM on PAPD5 (10 nM enzyme, 5 uM ATP, 50 nM A15 RNA, read-out: average pIC50 PAPD5 (converted)); 5.8e-05 µg/mL and 0.13 nM in the data set with AAV-HBV [6] (Mus musculus); 0.00095 µg/mL and 2.19 nM in the data set on HBV HBsAg [7]; 0.832 nM in the data set with HBV HBsAg [7] (504 h, read-out: average pIC50 for reduction of HBV HBsAg (converted)). Further, the pEC50 in the data set with HBV HBsAg [1] is 9.52. In addition, the 90% effect concentration (IC90) (commonly the concentration at which the effect reaches the 90% level) is 5.04 ng/mL (≈ 0.0116 µM) with HBV HBsAg [1] (HePAD38, read-out: Calculated IC90); 0.522 ng/mL (≈ 0.00121 µM) in the data set with AAV-HBV [6] (Mus musculus, read-out: Calculated IC90); 8.55 ng/mL (≈ 0.0198 µM) with HBV HBsAg [7] (read-out: Calculated IC90). Besides, the HBsAg off-treatment entry with AAV-HBV [4] (within one week off-treatment) is “rebounded to baseline”. Also, the “reduction in HBsAg” value in the data set with AAV-HBV [4] (within one week, stable up to 28 days, statistically significant) is around 1 log; in the data set with AAV-HBV [6] (Compound A 0.3 mg/kg, over the course of treatment), “minimal reduction in HBsAg”. Moreover, the “no adverse effect dose” value in data set [5] and in data set [8] was “No adverse effect doses were established” throughout. For the same molecule, the “more potent than RG7834 by” value at PAPD5 (PAPD5 and PAPD7 assays (FIG. 2)) is reported as above 0.5 log. Further, the “HBsAg reduction compared to the combined vehicle group” value in the data set with AAV-HBV [6] (Compound A 3 mg/kg or 30 mg/kg) was “statistically significant HBsAg reduction”. Further, the HBsAg reduction with AAV-HBV [6] (Compound A 3 mg/kg) is recorded as around 1 log; in the data set with AAV-HBV [6] (Compound A 30 mg/kg), 1 log. The “maximum observed reduction in HBeAg” value in the data set on AAV-HBV [6] (Compound A 30 mg/kg) is on record as 0.5 log. Besides, in the data set on AAV-HBV [6] (Compound A, following one week off-treatment), the HBsAg levels off-treatment result was “rebounded to baseline”. In addition, the “effect on levels of HBeAg” value in the data set with AAV-HBV [6] (during treatment with Compound A, stabilized after day 7, rebounded within one week after end) is “dose dependent reduction”.
